{"source": "patent US20240307311A1", "about": "“STARCH BASED PRINTABLE MATERIALS” (ROQUETTE FRERES, priority 2021, published 2024)", "origin": "cited, not measured here"}
{"smiles": "CCC(C)n1ncn(-c2ccc(N3CCN(c4ccc(OCC5COC(Cn6cncn6)(c6ccc(Cl)cc6Cl)O5)cc4)CC3)cc2)c1=O", "note": "(centres unmarked) [itraconazole]", "values": [{"measurement": "solubility in water (descriptive class)", "result": "practically insoluble in water"}]}
{"smiles": "Cn1c(=O)c2c(ncn2CC(O)CO)n(C)c1=O", "note": "(centres unmarked) [diprophylline]", "values": [{"measurement": "solubility in water (descriptive class)", "result": "freely soluble in water"}]}
